Patent US8420336B2, “Method of bioassaying yokukansan” (priority 2008, dated 2013)
Like-named read-outs stand apart in the source and are kept apart here.

Columns and labels:
AMPA receptors = experiment: Binding test for test drug to AMPA receptors ([3H]AMPA competition); parameters: species or system Wistar rat; details: labeled ligand of the assay, listed among the conditions
Protocol: (§1) 20 mg of a test drug (TJ-54 or an extract of the constituent crude drug) was weighed. Distilled water was added to the test drug so as to give a concentration of 20 mg/125 μL (20 mg/100 μL for the extract of the constituent crude drug), and further the resulting solution was diluted to 2-fold with DMSO, which was used as a stock solution. This stock solution was diluted to have each concentration.
(2) Binding Test for Test Drug to AMPA Receptors
20 mL/g of 50 mM Tris-HCl buffer (containing 200 mM KSCN) was added to the cerebral cortex tissue collected from a Wistar rat. […]
(§2) After completion of the incubation, the mixture was filtered through a glass fiber filter (Whatman 1821-915 GF/B, Whatman) using a cell harvester (Brandel MLR-48, Skatron micro-96, Perkin Elmer), and the filter was washed 3 to 6 times with 50 mM Tris-HCl buffer. Then, the radioactivity of [^3H]AMPA on the glass fiber filter was measured using a liquid scintillation counter (Wallac Counter, Perkin Elmer). As for the nonspecific binding, the radioactivity of [^3H]AMPA in the presence of 1000 μM unlabeled L-glutamate was measured. As for the total binding, the radioactivity of [^3H]AMPA in the absence of the test drug was measured. The binding activity of the test drug was evaluated on the basis of the binding inhibition ratio obtained from the above formula. […]

[1] = biological target: glutamate binding site of NMDA receptors; experiment: Binding test for test drug to glutamate binding site of NMDA receptors ([3H]CGP-39653 competition); parameters: species or system Wistar rat; details: labeled ligand of the assay; listed among the conditions
Protocol: as §1
(4) Binding Test for Test Drug to Glutamate Binding Site of NMDA Receptors
20 mL/g of 50 mM Tris-HCl buffer was added to the cerebral cortex tissue collected from a Wistar rat. The resulting mixture was homogenized, and the homogenate was centrifuged (1,000×g for 10 minutes at 4° C.). […]
as §2, with “[^3H]CGP-39653” for “[^3H]AMPA”, “measured.” for “measured. The binding activity of the test drug was evaluated on the basis of the binding inhibition ratio obtained from the above formula.”

glutamate receptors = experiment: Non-selective binding test for test drug to glutamate receptors ([3H]L-glutamate competition); parameters: species or system Wistar rat; details: labeled ligand of the assay; listed among the conditions of the experiment
Protocol: as §1
(1) Non-Selective Binding Test for Test Drug to Glutamate Receptors
20 mL/g of 50 mM Tris-HCl buffer was added to the brain tissue collected from a Wistar rat. […]
as §2, with “[^3H]L-glutamate” for “[^3H]AMPA”, “50” for “1000”, “calculated from” for “evaluated on”, “following” for “basis of the”, “(%).” for “obtained from the above formula.”

[2] = biological target: T1, glycine binding site of NMDA receptors (Rattus norvegicus, UniProt P35439); experiment: Binding test for test drug to glycine binding site of NMDA receptors ([3H]MDL-105519 competition); parameters: species or system Wistar rat; details: labeled ligand of the assay; listed among the conditions
T1 construct: cerebral cortex tissue collected from a Wistar rat; from tissue; host or cells: cerebral cortex of Wistar rat, membrane fraction
Protocol: 20 mL/g of 50 mM HEPES buffer was added to the cerebral cortex tissue collected from a Wistar rat. The resulting mixture was homogenized, and the homogenate was centrifuged (1,000×g for 10 minutes at 4° C.). Then, the resulting supernatant was collected and centrifuged (20,000×g for 20 minutes at 4° C.) to obtain a pellet. The pellet was resuspended in a buffer and the suspension was centrifuged (8,000×g for 20 minutes at 4° C.). Further, the resulting supernatant was collected and centrifuged (48,000×g for 20 minutes at 4° C.) to obtain a pellet. […]
After completion of the incubation, the mixture was filtered through a glass fiber filter (Whatman 1821-915 GF/B, Whatman) using a cell harvester (Brandel MLR-48, Skatron micro-96, Perkin Elmer), and the filter was washed 3 to 6 times with 50 mM HEPES buffer. Then, the radioactivity of [^3H]MDL-105519 on the glass fiber filter was measured using a liquid scintillation counter (Wallac Counter, Perkin Elmer). As for the nonspecific binding, the radioactivity of [^3H]MDL-105519 in the presence of 10 μM unlabeled MDL-105519 was measured. As for the total binding, the radioactivity of [^3H]MDL-105519 in the absence of the test drug was measured. The binding activity of the test drug was evaluated on the basis of the binding inhibition ratio obtained from the above formula. […]

kainate receptors = experiment: Binding test for test drug to kainate receptors ([3H]kainic acid competition); parameters: species or system Wistar rat; details: labeled ligand of the assay; listed among the conditions
Protocol: as §1
(3) Binding Test for Test Drug to Kainate Receptors
20 mL/g of 50 mM Tris-HCl buffer was added to the brain tissue excluding the cerebellum tissue collected from a Wistar rat. The resulting mixture was homogenized, and centrifugation (48,000×g for 15 minutes at 4° C.) of the homogenate was repeated three times to obtain a membrane fraction. […]
Then, the radioactivity of [^3H]kainic acid on the glass fiber filter was measured using a liquid scintillation counter (Wallac Counter, Perkin Elmer). As for the nonspecific binding, the radioactivity of [^3H]kainic acid in the presence of 1000 μM unlabeled L-glutamate was measured. As for the total binding, the radioactivity of [^3H]kainic acid in the absence of the test drug was measured. The binding activity of the test drug was evaluated on the basis of the binding inhibition ratio obtained from the above formula. […]

human recombinant mGluR5 = biological target: T2, human recombinant mGluR5 (Homo sapiens, UniProt P41594); experiment: Binding test for test drug to metabotropic glutamate receptor mGluR5 ([3H]quisqualic acid competition); details: labeled ligand of the assay; listed among the conditions
T2 construct: purchased Perkin Elmer; host or cells: CHO-K1 cell membranes
T2 sequence (P41594 21-1212): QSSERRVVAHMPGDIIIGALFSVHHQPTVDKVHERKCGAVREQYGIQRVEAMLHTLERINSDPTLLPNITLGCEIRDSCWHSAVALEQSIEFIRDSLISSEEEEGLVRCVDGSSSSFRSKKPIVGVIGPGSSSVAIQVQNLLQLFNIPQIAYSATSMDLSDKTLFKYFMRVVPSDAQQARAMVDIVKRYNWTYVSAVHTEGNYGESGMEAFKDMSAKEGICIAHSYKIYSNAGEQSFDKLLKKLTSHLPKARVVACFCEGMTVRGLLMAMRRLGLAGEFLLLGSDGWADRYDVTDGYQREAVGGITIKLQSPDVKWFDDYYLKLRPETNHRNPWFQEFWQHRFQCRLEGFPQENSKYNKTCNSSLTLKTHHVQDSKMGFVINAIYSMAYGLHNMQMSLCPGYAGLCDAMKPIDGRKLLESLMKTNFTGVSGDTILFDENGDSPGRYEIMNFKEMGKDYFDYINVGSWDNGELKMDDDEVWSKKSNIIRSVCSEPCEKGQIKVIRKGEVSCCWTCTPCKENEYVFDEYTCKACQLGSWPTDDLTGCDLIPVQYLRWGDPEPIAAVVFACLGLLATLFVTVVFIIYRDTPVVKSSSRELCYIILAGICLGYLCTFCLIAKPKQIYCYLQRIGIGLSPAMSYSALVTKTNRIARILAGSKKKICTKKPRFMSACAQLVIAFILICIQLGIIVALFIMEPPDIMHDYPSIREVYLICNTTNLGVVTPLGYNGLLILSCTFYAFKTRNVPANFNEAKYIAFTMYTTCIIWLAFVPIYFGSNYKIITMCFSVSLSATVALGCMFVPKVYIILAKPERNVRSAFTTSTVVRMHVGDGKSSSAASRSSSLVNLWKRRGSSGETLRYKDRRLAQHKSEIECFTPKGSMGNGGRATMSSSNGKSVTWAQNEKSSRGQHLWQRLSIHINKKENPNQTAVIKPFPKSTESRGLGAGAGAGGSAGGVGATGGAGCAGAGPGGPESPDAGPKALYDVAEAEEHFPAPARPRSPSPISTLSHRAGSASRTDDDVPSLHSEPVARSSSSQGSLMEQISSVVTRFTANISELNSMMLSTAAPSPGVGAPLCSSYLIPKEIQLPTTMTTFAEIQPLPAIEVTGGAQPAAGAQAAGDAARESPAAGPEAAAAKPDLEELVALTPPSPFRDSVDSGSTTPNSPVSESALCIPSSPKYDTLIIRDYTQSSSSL
Protocol: (6) Binding Test for Test Drug to Metabotropic Glutamate Receptor mGluR5
30 μg protein/100 μL of a CHO-K1 cell membrane solution, 20 μL of [^3H]quisqualic acid (final concentration: 0.03 μM) and 1.1 μL of the test drug solution of each concentration were added to a 1 mL tube, and the resulting mixture was incubated at 25° C. for 2 hours. In the control group, a DMSO solution (final concentration: 0.5%) was added, and the resulting mixture was incubated in the same manner.
After completion of the incubation, the mixture was filtered through a glass fiber filter (Whatman 1821-915 GF/B, Whatman) using a cell harvester (Micro 96 FilterMate, Perkin Elmer), and the filter was washed 6 times with 20 mM HEPES buffer. Then, the radioactivity of [^3H]quisqualic acid on the glass fiber filter was measured using a liquid scintillation counter (Wallac Counter). As for the nonspecific binding, the radioactivity of [^3H]quisqualic acid in the presence of 1000 μM unlabeled L-glutamate was measured. As for the total binding, the radioactivity of [^3H]quisqualic acid in the absence of the test drug was measured. The binding activity of the test drug was evaluated on the basis of the binding inhibition ratio obtained from the above formula.
The respective conditions in this experiment are as follows. […]

Cc1onc(O)c1CC(N)C(=O)O (stereo not drawn) [[^3H]AMPA, α-amino-3-hydroxy-5-methyl-4-isoxazolepropionate]
Kd (AMPA receptors; Kd1, read-out: Kd (Kd1)): 18 nM | Kd (AMPA receptors; Kd2, read-out: Kd (Kd2)): 990 nM

CCCC(=CC(N)C(=O)O)CP(=O)(O)O (stereo not shown) [[^3H]CGP-39653]
Kd [1]: 19 nM

N[C@@H](CCC(=O)O)C(=O)O [[^3H]L-glutamate, L-glutamate]
Kd (glutamate receptors): 293 nM

O=C(O)C(=Cc1c(C(=O)O)[nH]c2cc(Cl)cc(Cl)c12)c1ccccc1 [[^3H]MDL-105519]
Kd [2]: 6 nM

C=C(C)[C@H]1CN[C@H](C(=O)O)[C@H]1CC(=O)O [[^3H]kainic acid, kainic acid]
Kd (kainate receptors): 12 nM

N[C@@H](Cn1oc(=O)[nH]c1=O)C(=O)O [[^3H]quisqualic acid, quisqualic acid]
Kd (human recombinant mGluR5): 26 nM
